According to patent publication US7534818B1 (priority 2003, dated 2009):

Legend:
normal rats = assay: Identification of non-toxic doses of MSC (survival, weight loss) in normal rats; assay type: in vivo, adult Fisher rats; conditions: for animals surviving treatment: 21 days
Protocol: This example describes the identification of non-toxic doses for the use of selenium. To illustrate this embodiment, different groups of adult Fisher rats were administered various doses of selenium for 21 days and survival of rats was monitored. Each group had 6 rats and each exempt group was repeated 3-4 times. […] Thus, for evaluation of the protective effect of MSC against chemotherapy induced toxicity, the dose and schedule of MSC used was 0.75 mg/rat/d up to 21 days orally.
Bladders were removed and fixed in formalin.

rat bladder = conditions: MSC 0.75 mg/rat/d orally; for bladder histology (hemorrhage): 24 hrs after cyclophosphamide 150 mg/kg×1 i.v., first dose 14 days before, hematoxylin-eosin sections, FIG. 2
Excerpt: Bladders were removed and fixed in formalin. Paraffin embedded sections were obtained and stained by hematoxylin-eosin staining by standard methods.

rats = conditions: days 30 and 45 after cyclophosphamide 100 mg/kg i.v.×1; MSC 0.75 mg/rat/d×21, first dose 14 days before; FIG. 4
Protocol: Regrowth of hair was assessed at 30, 45 and 90 days post initiation of cyciophosphamide treatment.

[1] = tested on: human squamous cell carcinoma of head and neck tumor xenografts (A253); assay: Anti-tumor activity in A253 xenografts; assay type: in vivo; conditions: A253 xenografts in nude mice; cyclophosphamide 100 mg/kg×1, i.v., alone or in combination with MSC
[2] = up to 0.75 mg/rat/d×21 MSC, adult Fisher rats

| SMILES | weight loss (normal rats; 0.75 mg/rat/d MSC orally up to 21 days, Fisher rats 120-180 g, stated as less than 10% of total body weight) | animals surviving treatment (normal rats; 1 mg MSC dose, adult Fisher rats) | animals surviving treatment (normal rats; 1.25 mg MSC dose, adult Fisher rats) | lethality (normal rats; [2]) | toxicity (normal rats; [2]) | weight loss (normal rats; [2]) | bladder histology (hemorrhage) (rat bladder) | regrowth of hair (alopecia) (rats) | bladder mucosal edema (rat bladder; 4 hrs after cyclophosphamide 150 mg/kg×1 i.v., FIG. 3) | Tumor growth inhibition [1] |
| --- | --- | --- | --- | --- | --- | --- | --- | --- | --- | --- |
| C[Se]C[C@H](N)C(=O)O [MSC, 5-methylselenocysteine] | 7.4±2.4 | 75% | 0% | no lethality | not toxic | less than 5% | no change |  |  |  |
| O=P1(N(CCCl)CCCl)NCCCO1 (centres unmarked) [cyclophosphamide] |  |  |  |  |  |  | severe hemorrhagic cystitis | only partial recovery | acute mucosal edema | 35% |
